# In ChEMBL document CHEMBL4804284:
# Legend:
# Set-up in all cases: scale not given: the % may be the effect or the level left
# [1] = target: Mitogen-activated protein kinase kinase kinase 15 (Homo sapiens) (UniProt Q6ZN16); assay: Inhibition of DNA-tagged human MAP3K15 assessed as percent of control at 50000 nM by qPCR analysis relative to control
# [2] = target: Cyclin-dependent kinase 15 (Homo sapiens) (UniProt Q96Q40); assay: Inhibition of DNA-tagged human PFTAIRE2 assessed as percent of control at 50000 nM by qPCR analysis relative to control
# [3] = tested on: Hepatocyte growth factor receptor (Homo sapiens), P08581 [M1250T]; assay: Inhibition of DNA-tagged human MET M1250T mutant assessed as percent of control at 50000 nM by qPCR analysis relative to control
# [4] = target: Receptor-interacting serine/threonine-protein kinase 4 (Homo sapiens) (UniProt P57078); assay: Inhibition of DNA-tagged human RIPK4 assessed as percent of control at 50000 nM by qPCR analysis relative to control
# [5] = target: Leukocyte tyrosine kinase receptor (Homo sapiens) (UniProt P29376); assay: Inhibition of DNA-tagged human LTK assessed as percent of control at 50000 nM by qPCR analysis relative to control
# [6] = target: Mitogen-activated protein kinase kinase kinase 11 (Homo sapiens) (UniProt Q16584); assay: Inhibition of DNA-tagged human MLK3 assessed as percent of control at 50000 nM by qPCR analysis relative to control
# [7] = target: Angiopoietin-1 receptor (Homo sapiens) (UniProt Q02763); assay: Inhibition of DNA-tagged human TIE2 assessed as percent of control at 50000 nM by qPCR analysis relative to control
# [8] = target: RAC-gamma serine/threonine-protein kinase (Homo sapiens) (UniProt Q9Y243); assay: Inhibition of DNA-tagged human AKT3 assessed as percent of control at 50000 nM by qPCR analysis relative to control
# [9] = target: AP2-associated protein kinase 1 (Homo sapiens) (UniProt Q2M2I8); assay: Inhibition of DNA-tagged human AAK1 assessed as percent of control at 50000 nM by qPCR analysis relative to control
# [10] = target: Tyrosine-protein kinase Tec (Homo sapiens) (UniProt P42680); assay: Inhibition of DNA-tagged human TEC assessed as percent of control at 50000 nM by qPCR analysis relative to control
# [11] = target: Dual specificity protein kinase CLK2 (Homo sapiens) (UniProt P49760); assay: Inhibition of DNA-tagged human CLK2 assessed as percent of control at 50000 nM by qPCR analysis relative to control
# [12] = target: Wee1-like protein kinase (Homo sapiens) (UniProt P30291); assay: Inhibition of DNA-tagged human WEE1 assessed as percent of control at 50000 nM by qPCR analysis relative to control
# [13] = target: Serine/threonine-protein kinase Chk1 (Homo sapiens) (UniProt O14757); assay: Inhibition of DNA-tagged human CHEK1 assessed as percent of control at 50000 nM by qPCR analysis relative to control
# [14] = target: Glycogen synthase kinase-3 beta (Homo sapiens) (UniProt P49841); assay: Inhibition of DNA-tagged human GSK3B assessed as percent of control at 50000 nM by qPCR analysis relative to control
# [15] = target: Calcium/calmodulin-dependent protein kinase kinase 1 (Homo sapiens) (UniProt Q8N5S9); assay: Inhibition of DNA-tagged human CAMKK1 assessed as percent of control at 50000 nM by qPCR analysis relative to control
# [16] = target: Serine/threonine-protein kinase DCLK2 (Homo sapiens) (UniProt Q8N568); assay: Inhibition of DNA-tagged human DCAMKL2 assessed as percent of control at 50000 nM by qPCR analysis relative to control
# [17] = target: Mitogen-activated protein kinase kinase kinase kinase 4 (Homo sapiens) (UniProt O95819); assay: Inhibition of DNA-tagged human MAP4K4 assessed as percent of control at 50000 nM by qPCR analysis relative to control
# [18] = target: Serine/threonine-protein kinase Nek6 (Homo sapiens) (UniProt Q9HC98); assay: Inhibition of DNA-tagged human NEK6 assessed as percent of control at 50000 nM by qPCR analysis relative to control
# [19] = target: Interleukin-1 receptor-associated kinase 1 (Homo sapiens) (UniProt P51617); assay: Inhibition of DNA-tagged human IRAK1 assessed as percent of control at 50000 nM by qPCR analysis relative to control
# [20] = target: Casein kinase I isoform gamma-1 (Homo sapiens) (UniProt Q9HCP0); assay: Inhibition of DNA-tagged human CSNK1G1 assessed as percent of control at 50000 nM by qPCR analysis relative to control
# [21] = target: Ephrin type-A receptor 7 (Homo sapiens) (UniProt Q15375); assay: Inhibition of DNA-tagged human EPHA7 assessed as percent of control at 50000 nM by qPCR analysis relative to control
# [22] = target: Serine/threonine-protein kinase NLK (Homo sapiens) (UniProt Q9UBE8); assay: Inhibition of DNA-tagged human NLK assessed as percent of control at 50000 nM by qPCR analysis relative to control
# [23] = target: Glycogen synthase kinase-3 alpha (Homo sapiens) (UniProt P49840); assay: Inhibition of DNA-tagged human GSK3A assessed as percent of control at 50000 nM by qPCR analysis relative to control
# [24] = target: Discoidin domain-containing receptor 2 (Homo sapiens) (UniProt Q16832); assay: Inhibition of DNA-tagged human DDR2 assessed as percent of control at 50000 nM by qPCR analysis relative to control
# [25] = target: Cyclin-dependent kinase 8 (Homo sapiens) (UniProt P49336); assay: Inhibition of DNA-tagged human CDK8 assessed as percent of control at 50000 nM by qPCR analysis relative to control
# [26] = target: Mitogen-activated protein kinase kinase kinase kinase 1 (Homo sapiens) (UniProt Q92918); assay: Inhibition of DNA-tagged human HPK1 assessed as percent of control at 50000 nM by qPCR analysis relative to control
# [27] = target: Calcium/calmodulin-dependent protein kinase type 1 (Homo sapiens) (UniProt Q14012); assay: Inhibition of DNA-tagged human CAMK1 assessed as percent of control at 50000 nM by qPCR analysis relative to control
# [28] = target: Ribosomal protein S6 kinase alpha-2 (Homo sapiens) (UniProt Q15349); assay: Inhibition of DNA-tagged human N-terminal RSK3 kinase domain 1 assessed as percent of control at 50000 nM by qPCR analysis relative to control
# [29] = target: Dual specificity protein kinase CLK3 (Homo sapiens) (UniProt P49761); assay: Inhibition of DNA-tagged human CLK3 assessed as percent of control at 50000 nM by qPCR analysis relative to control
# [30] = target: Calcium/calmodulin-dependent protein kinase type IV (Homo sapiens) (UniProt Q16566); assay: Inhibition of DNA-tagged human CAMK4 assessed as percent of control at 50000 nM by qPCR analysis relative to control
# Wee1-like protein kinase (Homo sapiens), sequence (P30291 whole entry, looked up): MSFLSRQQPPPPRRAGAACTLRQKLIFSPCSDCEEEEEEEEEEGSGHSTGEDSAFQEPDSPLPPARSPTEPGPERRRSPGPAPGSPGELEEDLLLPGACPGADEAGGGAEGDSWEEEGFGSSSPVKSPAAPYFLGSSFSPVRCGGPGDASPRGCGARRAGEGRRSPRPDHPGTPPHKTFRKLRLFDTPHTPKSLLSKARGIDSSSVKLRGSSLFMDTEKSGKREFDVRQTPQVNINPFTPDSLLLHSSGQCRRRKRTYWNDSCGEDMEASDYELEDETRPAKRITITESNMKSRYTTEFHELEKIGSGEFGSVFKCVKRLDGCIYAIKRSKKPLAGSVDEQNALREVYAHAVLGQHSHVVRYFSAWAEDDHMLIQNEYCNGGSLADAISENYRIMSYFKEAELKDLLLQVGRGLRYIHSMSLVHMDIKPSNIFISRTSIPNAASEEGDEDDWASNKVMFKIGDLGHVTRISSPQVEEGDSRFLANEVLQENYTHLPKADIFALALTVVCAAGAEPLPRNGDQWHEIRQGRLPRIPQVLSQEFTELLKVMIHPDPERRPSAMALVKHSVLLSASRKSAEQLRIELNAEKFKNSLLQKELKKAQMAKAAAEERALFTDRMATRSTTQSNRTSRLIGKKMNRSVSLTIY
# Mitogen-activated protein kinase kinase kinase 15 (Homo sapiens), sequence (Q6ZN16 whole entry): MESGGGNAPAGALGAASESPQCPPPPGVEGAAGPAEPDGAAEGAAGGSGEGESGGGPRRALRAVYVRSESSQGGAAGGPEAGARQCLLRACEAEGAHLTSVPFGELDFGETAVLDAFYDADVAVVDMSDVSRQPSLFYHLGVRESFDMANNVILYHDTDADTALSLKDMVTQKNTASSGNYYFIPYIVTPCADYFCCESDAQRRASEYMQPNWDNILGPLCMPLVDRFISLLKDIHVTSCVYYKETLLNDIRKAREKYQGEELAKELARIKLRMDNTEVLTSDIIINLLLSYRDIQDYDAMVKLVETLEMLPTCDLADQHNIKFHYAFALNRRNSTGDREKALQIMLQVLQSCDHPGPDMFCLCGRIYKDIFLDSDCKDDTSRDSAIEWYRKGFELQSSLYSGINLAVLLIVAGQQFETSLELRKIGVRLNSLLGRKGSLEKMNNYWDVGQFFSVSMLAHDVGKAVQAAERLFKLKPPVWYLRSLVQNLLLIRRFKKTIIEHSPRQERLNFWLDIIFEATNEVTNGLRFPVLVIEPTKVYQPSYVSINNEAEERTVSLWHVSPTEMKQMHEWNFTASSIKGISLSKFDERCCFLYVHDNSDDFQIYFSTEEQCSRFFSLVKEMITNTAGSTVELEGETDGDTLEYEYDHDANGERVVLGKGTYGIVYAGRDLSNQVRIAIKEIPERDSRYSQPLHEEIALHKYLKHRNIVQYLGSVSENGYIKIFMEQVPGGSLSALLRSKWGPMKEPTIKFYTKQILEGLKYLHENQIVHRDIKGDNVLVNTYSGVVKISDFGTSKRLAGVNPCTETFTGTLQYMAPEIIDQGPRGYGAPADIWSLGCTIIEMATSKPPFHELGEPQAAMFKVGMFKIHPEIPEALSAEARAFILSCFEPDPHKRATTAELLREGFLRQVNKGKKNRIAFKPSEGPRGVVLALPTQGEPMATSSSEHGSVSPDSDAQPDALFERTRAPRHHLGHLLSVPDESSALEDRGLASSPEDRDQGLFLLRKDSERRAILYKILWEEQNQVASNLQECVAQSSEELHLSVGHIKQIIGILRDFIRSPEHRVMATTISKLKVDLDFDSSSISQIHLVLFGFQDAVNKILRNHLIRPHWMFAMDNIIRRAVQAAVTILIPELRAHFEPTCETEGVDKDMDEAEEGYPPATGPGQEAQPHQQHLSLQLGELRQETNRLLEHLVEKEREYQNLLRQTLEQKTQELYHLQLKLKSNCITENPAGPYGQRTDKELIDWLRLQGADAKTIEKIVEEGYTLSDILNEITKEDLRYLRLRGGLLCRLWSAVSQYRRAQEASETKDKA
# Calcium/calmodulin-dependent protein kinase kinase 1 (Homo sapiens), sequence (Q8N5S9 whole entry, looked up): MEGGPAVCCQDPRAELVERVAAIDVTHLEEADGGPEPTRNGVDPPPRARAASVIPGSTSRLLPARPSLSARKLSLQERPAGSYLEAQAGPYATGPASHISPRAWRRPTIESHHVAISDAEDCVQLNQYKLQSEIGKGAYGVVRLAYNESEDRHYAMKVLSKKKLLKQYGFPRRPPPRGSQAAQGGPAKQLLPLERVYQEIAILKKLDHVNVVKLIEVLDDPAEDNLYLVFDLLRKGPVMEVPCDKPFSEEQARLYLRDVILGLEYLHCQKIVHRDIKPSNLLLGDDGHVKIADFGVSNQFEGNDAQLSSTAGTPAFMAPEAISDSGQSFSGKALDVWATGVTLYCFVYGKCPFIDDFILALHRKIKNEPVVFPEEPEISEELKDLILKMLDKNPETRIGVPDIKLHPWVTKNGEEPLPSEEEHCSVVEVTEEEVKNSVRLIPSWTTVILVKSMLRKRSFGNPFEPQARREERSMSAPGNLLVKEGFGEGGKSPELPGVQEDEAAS
# Leukocyte tyrosine kinase receptor (Homo sapiens), sequence (P29376 whole entry): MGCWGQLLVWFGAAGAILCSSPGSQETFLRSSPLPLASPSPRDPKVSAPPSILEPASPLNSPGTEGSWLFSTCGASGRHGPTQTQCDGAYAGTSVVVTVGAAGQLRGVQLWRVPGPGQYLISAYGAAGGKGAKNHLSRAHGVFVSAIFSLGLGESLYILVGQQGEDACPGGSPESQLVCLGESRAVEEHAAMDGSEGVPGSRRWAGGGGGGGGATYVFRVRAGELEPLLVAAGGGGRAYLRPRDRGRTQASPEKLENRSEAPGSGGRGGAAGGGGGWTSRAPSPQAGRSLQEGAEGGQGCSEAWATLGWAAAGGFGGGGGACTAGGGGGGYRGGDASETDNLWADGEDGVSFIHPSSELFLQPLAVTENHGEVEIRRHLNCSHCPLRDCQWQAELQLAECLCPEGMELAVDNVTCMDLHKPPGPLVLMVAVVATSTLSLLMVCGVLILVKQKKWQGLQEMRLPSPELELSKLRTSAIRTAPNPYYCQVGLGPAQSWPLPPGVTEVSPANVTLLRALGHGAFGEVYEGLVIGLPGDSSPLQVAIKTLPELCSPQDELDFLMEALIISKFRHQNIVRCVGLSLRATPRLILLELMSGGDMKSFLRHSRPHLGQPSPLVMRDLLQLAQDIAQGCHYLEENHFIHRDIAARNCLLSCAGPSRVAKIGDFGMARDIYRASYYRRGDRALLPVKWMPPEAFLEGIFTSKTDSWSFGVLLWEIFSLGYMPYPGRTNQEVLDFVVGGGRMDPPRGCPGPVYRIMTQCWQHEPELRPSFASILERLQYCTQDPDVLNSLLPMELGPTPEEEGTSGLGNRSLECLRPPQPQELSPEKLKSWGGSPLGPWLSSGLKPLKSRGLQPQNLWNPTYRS
# Receptor-interacting serine/threonine-protein kinase 4 (Homo sapiens), sequence (P57078 whole entry): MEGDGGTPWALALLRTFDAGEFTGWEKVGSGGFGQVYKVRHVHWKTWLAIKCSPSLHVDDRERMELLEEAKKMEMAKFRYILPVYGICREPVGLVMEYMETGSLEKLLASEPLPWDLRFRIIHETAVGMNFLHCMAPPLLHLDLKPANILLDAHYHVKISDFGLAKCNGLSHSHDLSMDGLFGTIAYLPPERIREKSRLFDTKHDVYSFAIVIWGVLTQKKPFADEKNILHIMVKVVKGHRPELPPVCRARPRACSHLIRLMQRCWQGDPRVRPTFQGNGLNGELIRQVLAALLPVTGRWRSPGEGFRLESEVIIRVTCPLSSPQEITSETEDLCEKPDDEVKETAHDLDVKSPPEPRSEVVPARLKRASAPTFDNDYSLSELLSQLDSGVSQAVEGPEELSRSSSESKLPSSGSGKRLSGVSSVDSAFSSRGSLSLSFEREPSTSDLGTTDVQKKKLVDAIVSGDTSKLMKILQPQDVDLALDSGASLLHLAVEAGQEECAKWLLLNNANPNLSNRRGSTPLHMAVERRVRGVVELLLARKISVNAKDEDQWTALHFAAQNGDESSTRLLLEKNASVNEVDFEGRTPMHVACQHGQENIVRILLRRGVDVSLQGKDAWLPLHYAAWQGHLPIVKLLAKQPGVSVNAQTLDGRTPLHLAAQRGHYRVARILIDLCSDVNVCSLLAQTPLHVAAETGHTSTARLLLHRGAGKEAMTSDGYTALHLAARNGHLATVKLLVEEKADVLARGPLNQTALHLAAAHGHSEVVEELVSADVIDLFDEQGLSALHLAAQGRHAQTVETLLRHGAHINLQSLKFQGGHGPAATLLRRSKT
# Glycogen synthase kinase-3 beta (Homo sapiens), sequence (P49841 whole entry, looked up): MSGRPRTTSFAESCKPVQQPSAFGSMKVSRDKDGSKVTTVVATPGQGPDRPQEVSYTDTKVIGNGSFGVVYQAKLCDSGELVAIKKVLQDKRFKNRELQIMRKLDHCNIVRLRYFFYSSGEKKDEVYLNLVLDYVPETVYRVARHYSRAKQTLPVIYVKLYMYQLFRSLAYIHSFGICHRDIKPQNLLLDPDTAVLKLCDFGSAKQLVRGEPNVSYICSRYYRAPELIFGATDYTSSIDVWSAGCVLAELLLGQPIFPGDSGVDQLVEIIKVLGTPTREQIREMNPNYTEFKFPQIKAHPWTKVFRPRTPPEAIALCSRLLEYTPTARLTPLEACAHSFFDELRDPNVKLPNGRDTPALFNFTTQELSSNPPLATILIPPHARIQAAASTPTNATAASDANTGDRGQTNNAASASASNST
# Casein kinase I isoform gamma-1 (Homo sapiens), sequence (Q9HCP0 whole entry, looked up, canonical isoform): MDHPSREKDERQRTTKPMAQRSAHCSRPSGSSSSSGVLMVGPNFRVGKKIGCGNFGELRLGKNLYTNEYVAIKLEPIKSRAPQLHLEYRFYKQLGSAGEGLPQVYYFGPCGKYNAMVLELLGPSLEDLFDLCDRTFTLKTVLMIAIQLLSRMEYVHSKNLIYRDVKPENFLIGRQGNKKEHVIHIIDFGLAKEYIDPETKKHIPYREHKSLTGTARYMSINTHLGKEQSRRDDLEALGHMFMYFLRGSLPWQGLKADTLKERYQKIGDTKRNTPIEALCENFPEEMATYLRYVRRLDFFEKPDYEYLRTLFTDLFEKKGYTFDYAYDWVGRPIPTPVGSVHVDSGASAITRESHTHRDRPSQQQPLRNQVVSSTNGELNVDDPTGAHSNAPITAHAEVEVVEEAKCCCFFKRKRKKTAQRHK
smiles,measurement,setting,value
CN1C(=O)/C(=C2/C(=O)Nc3ccccc32)c2ccccc21,Activity,[1],69%
same,Activity,[2],88%
same,Activity,[3],80%
same,Activity,[4],98%
same,Activity,[5],92%
same,Activity,[6],71%
same,Activity,[7],100%
same,Activity,[8],92%
same,Activity,[9],91%
same,Activity,[10],100%
same,Activity,[11],75%
same,Activity,[12],91%
same,Activity,[13],100%
same,Activity,[14],90%
same,Activity,[15],86%
same,Activity,[16],93%
same,Activity,[17],100%
same,Activity,[18],81%
same,Activity,[19],64%
same,Activity,[20],95%
same,Activity,[21],100%
same,Activity,[22],100%
same,Activity,[23],85%
same,Activity,[24],86%
same,Activity,[25],100%
same,Activity,[26],93%
same,Activity,[27],88%
same,Activity,[28],100%
same,Activity,[29],100%
same,Activity,[30],88%
